27 molecules from patent publication US20210139517A1, “BICYCLIC HETEROARYL COMPOUNDS AND USES THEREOF” (Revolution Medicines, Inc., priority 2019, published 2021) can be followed below.

The target in experiment [1] is T1, SOS1 nucleotide exchange of wild-type KRAS (SOS1 catalytic domain residues 564-1049; KRAS residue 1-169) (Homo sapiens, UniProt Q07889).
T1 sequence (Q07889 564-1049): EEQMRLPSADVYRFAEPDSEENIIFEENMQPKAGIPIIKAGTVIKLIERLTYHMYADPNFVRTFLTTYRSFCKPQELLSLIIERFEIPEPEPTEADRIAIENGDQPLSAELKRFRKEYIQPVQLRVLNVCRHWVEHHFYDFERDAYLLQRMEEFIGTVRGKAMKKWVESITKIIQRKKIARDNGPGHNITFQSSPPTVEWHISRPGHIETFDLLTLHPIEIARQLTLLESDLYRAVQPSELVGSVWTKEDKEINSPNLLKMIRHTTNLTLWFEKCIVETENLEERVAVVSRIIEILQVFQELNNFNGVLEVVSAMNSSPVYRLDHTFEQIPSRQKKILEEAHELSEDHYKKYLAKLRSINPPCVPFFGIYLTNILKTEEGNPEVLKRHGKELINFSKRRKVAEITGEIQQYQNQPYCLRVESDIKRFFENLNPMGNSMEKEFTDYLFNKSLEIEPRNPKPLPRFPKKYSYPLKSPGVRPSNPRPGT
The experiment can be described thus: Inhibition of SOS1 nucleotide exchange activity of KRAS (TR-FRET). The class given is biochemical. The following applies: SOS1 nucleotide exchange of wild-type KRAS; three replicates; four-parameter logistic fit; read-out: TR-FRET IC50.

Experiment [2] addresses T2, SOS1 catalytic domain (residues 564-1049) (Homo sapiens, UniProt Q07889).
T2 sequence (Q07889 564-1049): T1 sequence (Q07889 564-1049)
The experiment can be described thus: SOS1 SPR binding affinity assay (Biacore 8K). Particulars: avi-tagged SOS1 catalytic domain immobilized on streptavidin chip; equilibrium 1:1 binding fit; read-out: SOS1 SPR Equilibrium Kd.

Experiment [3] deals with SOS1 function in cells: cellular pERK in PC-9 cells (EGFR Ex19Del). The experiment can be described thus: pERK potency assay in PC-9 cells (AlphaLISA SureFire Ultra p-ERK1/2). The class given is cell-based. The following applies: 1 hour incubation. The method, then: The purpose of this assay is tomeasure the ability of test compounds to inhibit SOS1 function in cells. SOS1 activates RAS proteins by catalyzing the conversion of RAS-GDP to RAS-GTP in response to receptor tyrosine kinase activation. […] The procedure described below measures the level of cellular pERK in response to test compounds in PC-9 cells (EGFR Ex19Del).
PC-9 cells were grown and maintained using media and procedures recommended by the ATCC. On the day prior to compound addition, cells were plated in 384-well cell culture plates (40 μL/well) and grown overnight in a 37° C., 5% CO2 incubator. Test compounds were prepared in 10, 3-fold dilutions in DMSO, with a top concentration of 10 mM. On the day of the assay, 40 nL of test compound was added to each well of cell culture plate using an Echo550 liquid handler (LabCyte). Concentrations of test compound were tested in duplicate with highest test concentration being 10 μM. After compound addition, cells were incubated for 1 hour at 37° C., 5% CO2. Following incubation, culture medium was removed and cells were washed once with phosphate buffered saline.
Cellular pERK level was determined using the AlphaLISA SureFire Ultra p-ERK1/2 Assay Kit (PerkinElmer). Cells were lysed in 25 μL lysis buffer, with shaking at 600 RPM at room temperature for 15 minutes. Lysate (10 μL) was transferred to a 384-well Opti-plate (PerkinElmer) and 5 μL acceptor mix was added. The plate was centrifuged at 1000 RPM for 1 minute, and incubated in the dark for 2 hours. Following this incubation, 5 μL of donor mix was added, the plate was sealed and centrifuged at 1000 RPM for 1 minute, and the mixture was incubated for 2 hours at room temperature. Signal was read on an Envision plate reader (PerkinElmer) using standard AlphaLISA settings. Analysis of raw data was carried out in Excel (Microsoft) and Prism (GraphPad). Signal was plotted vs. the decadal logarithm of compound concentration, and IC50 was determined by fitting a 4-parameter sigmoidal concentration response model.
(Alpha assays give light when donor and acceptor beads are brought close together.)

For the molecule `C[C@@H](Nc1ncnc2c1cc(C1(F)CCS(=O)(=O)CC1)c(=O)n2C)c1cccc(C(F)F)c1F` [Example 29, 4-(4-{[(1R)-1-[3-(difluoromethyl)-2-fluorophenyl]ethyl]amino}-8-methyl-7-oxo-7H,8H-pyrido[2,3-d]-pyrimidin-6-yl)-4-fluoro-1λ^6-thiane-1,1-dione], the IC50 (in general, the midpoint of a concentration-inhibition curve) in experiment [1] was determined as 50.1 nM. In experiment [2], the Kd – broadly, the free concentration of one partner at which half of the binding sites on the other are occupied at equilibrium, for simple one-to-one binding – is 36 nM.

Consider `C[C@@H](Nc1ncnc2c1cc(C(=O)N1CC3CCC1CO3)c(=O)n2C)c1cccc(C(F)F)c1F` (stereo partly drawn) [Example 26-18], for which, in experiment [1], the IC50 was found to be 78.6 nM. The Kd in experiment [2] was 150 nM.

As for `C[C@@H](Nc1ncnc2c1cc(C1(N)CCOCC1)c(=O)n2C)c1cccc(C(F)F)c1F` [Example 31, 6-(4-aminooxan-4-yl)-4-{[(1R)-1-[3-(difluoromethyl)-2-fluorophenyl]ethyl]amino}-8-methyl-7H,8H-pyrido-[2,3-d]pyrimidin-7-one], in experiment [1], the half-maximal inhibitory concentration (IC50) was determined as 31.5 nM. In addition, the dissociation constant Kd in experiment [2] is 42.8 nM.

Turning to `Cc1nc(N[C@H](C)c2cccc(C(F)F)c2F)c2cc(CN3CCOCC3)c(=O)n(C)c2n1` [Example 27, 4-{[(1R)-1-[3-(difluoromethyl)-2-fluorophenyl]ethyl]amino}-2,8-dimethyl-6-[(morpholin-4-yl)meth-yl]-7H,8H-pyrido[2,3-d]pyrimidin-7-one], the IC50 in experiment [1] stood at 192 nM. Moreover, the Kd in experiment [2] was determined as 550 nM.

`CO[C@]1(c2cc3c(N[C@H](C)c4cccc(C(F)F)c4F)ncnc3n(C)c2=O)CCN(C(C)=O)C1` [Example 32-19]: in experiment [1], the 50% inhibitory concentration (IC50) was 8.82 nM. In addition, the Kd in experiment [2] came to 6.92 nM.

In the case of `C[C@@H](Nc1ncnc2c1cc(C1CCNCC1O)c(=O)n2C)c1cccc(C(F)F)c1F` (stereo partly drawn) [Example 34, 4-(((R)-1-(3-(difluoromethyl)-2-fluorophenyl)ethyl)amino)-6-(3-hydroxypiperidin-4-yl)-8-methylpyrido[2,3-d]pyrimidin-7(8H)-one], the IC50 in experiment [1] came out at 62.7 nM. Further, the Kd in experiment [2] was 72.9 nM.

On to `C[C@@H](Nc1ncnc2c1cc(Sc1ccccc1)c(=O)n2C)c1cccc(C(F)F)c1F` [Example 30, 4-{[(1R)-1-[3-(difluoromethyl)-2-fluorophenyl]ethyl]amino}-8-methyl-6-(phenylsulfanyl)-7H,8H-pyrido[2,3-d]pyrimidin-7-one], for which the IC50 in experiment [1] turned out to be 10900 nM.

Turning to `C[C@@H](Nc1ncnc2c1cc(C(=O)N1CC3CCC(C1)O3)c(=O)n2C)c1cccc(C(F)F)c1F` [Example 26-19], the IC50 in experiment [1] is 65.4 nM. For the same molecule, the Kd in experiment [2] was found to be 148 nM.

`Cc1nc(N[C@H](C)c2cccc(C(F)(F)F)c2)c2cc(N3CCOCC3)c(=O)n(C)c2n1` [Example 10, 2,8-dimethyl-6-(morpolin-4-yl)-4-[[(1R)-1-[3-(trifluoromethyl)phenyl]ethyl]amino]-7H,8H-pyrido[2,3-d]pyrimidin-7-one]: the IC50 in experiment [3] (Homo sapiens, PC-9, 1 h) is 787 nM; in experiment [1], 178 nM.

In the case of `Cc1nc(N[C@H](C)c2cc(N)cc(C(F)(F)F)c2)c2cc(C3CCNCC3)c(=O)[nH]c2n1` [Example 8, (R)-4-((1-(3-amino-5-(trifluoromethyl)phenyl)ethyl)amino)-2-methyl-6-(piperidin-4-yl)pyrido[2,3-d]pyrimidin-7(8H)-one], in experiment [1], the concentration for half-maximal inhibition (IC50) came out at 22.2 nM.

`C[C@@H](Nc1ncnc2c1cc(N1CCOCC1)c(=O)n2C)c1cccc(C(F)(F)CO)c1` [Example 2, (R)-4-((1-(3-(1,1-difluoro-2-hydroxyethyl)phenyl)ethyl)amino)-8-methyl-6-morpholinopyrido[2,3-d]pyrimidin-7(8H)-one]: in experiment [1], the IC50 came out at 12.9 nM. Besides, the Kd in experiment [2] stood at 7.36 nM.

For the molecule `C[C@@H](Nc1ncnc2c1cc(C1CC3(C1)CS(=O)(=O)C3)c(=O)n2C)c1cccc(C(F)F)c1F` [Example 33, 6-(4-{[(1R)-1-[3-(difluoromethyl)-2-fluorophenyl]ethyl]amino}-8-methyl-7-oxo-7H,8H-pyrido[2,3-d]pyrimi-din-6-yl)-2λ^6-thiaspiro[3.3]heptane-2,2-dione], in experiment [1], the IC50 is 29.5 nM. In experiment [2], the Kd turned out to be 33.4 nM.

As to `C[C@@H](Nc1ncnc2c1cc(C1=CCS(=N)(=O)CC1)c(=O)n2C)c1cccc(C(F)F)c1F` (stereo partly drawn) [Example 23, 4-(((R)-1-(3-(difluoromethyl)-2-fluorophenyl)ethyl)amino)-6-(1-imino-1-oxido-1,2,3,6-tetrahydro-1λ^6-thiopyran-4-yl)-8-methylpyrido[2,3-d]pyrimidin-7(8H)-one], the IC50 in experiment [1] came to 20.9 nM. In addition, the Kd in experiment [2] was 19.8 nM.

As for `COC1(c2cc3c(N[C@H](C)c4cccc(C(F)F)c4F)ncnc3n(C)c2=O)CCS(=O)(=O)CC1` [Example 32, 4-(4-{[(1R)-1-[3-(difluoro-methyl)-2-fluorophenyl]ethyl]amino}-8-methyl-7-oxo-7H,8H-pyrido[2,3-d]pyrimidin-6-yl)-4-methoxy-1λ^6-thiane-1,1-dione], in experiment [2], the Kd amounted to 39.6 nM.

Regarding `C[C@@H](Nc1ncnc2c1cc(N1CCOCC1)c(=O)n2C1CC1)c1cccc(C(F)(F)F)c1` [Example 11, 8-cyclopropyl-6-(morpholin-4-yl)-4-{[(1R)-1-[3-(trifluoromethyl)phenyl]ethyl]amino}-7H,8H-pyrido[2,3-d]pyrimidin-7-one], the IC50 in experiment [3] (Homo sapiens, PC-9, 1 h) stood at 292 nM; in experiment [1], 32.8 nM.

`COc1cccc(Cc2cc3c(N[C@H](C)c4cccc(C(F)F)c4F)nc(C)nc3n(C)c2=O)c1OC` [Example 20] registered an IC50 in experiment [3] of 3950 nM.

Molecule `CO[C@@]1(c2cc3c(N[C@H](C)c4cccc5c4OCC5(F)F)ncnc3n(C)c2=O)CCN(C(C)=O)C1` [Example 32-93] displayed an IC50 in experiment [3] of 294 nM.

The molecule `C[C@@H](Nc1ncnc2c1cc(C1CCN(CC(F)F)CC1)c(=O)n2C)c1cccc(C(F)F)c1F` [Example 8-13] registered a concentration for half-maximal inhibition (IC50) in experiment [3] of 364 nM.

Take `C[C@@H](Nc1ncnc2c1cc(C1=CCOCC1)c(=O)n2C)c1cccc(C(F)(F)F)c1` [Example 5, (R)-6-(3,6-dihydro-2H-pyran-4-yl)-8-methyl-4-((1-(3-(trifluoromethyl)phenyl)ethyl)amino)pyrido[2,3-d]pyrimidin-7(8H)-one]: the IC50 in experiment [1] was 113 nM.

For the molecule `COC1(c2cc3c(N[C@H](C)c4cccc(C(F)F)c4F)ncnc3n(C)c2=O)CC2CS(=O)(=O)CC2C1` (stereo partly drawn) [Example 32-84], in experiment [3], the IC50 came out at 173 nM.

The molecule `COC1(c2cc3c(N[C@H](C)c4cccc(C(F)F)c4F)ncnc3n(C)c2=O)CCC2(CC1)CN(C(C)=O)C2` [Example 32-78] returned an IC50 in experiment [3] of 49.3 nM.

Molecule `COc1ncccc1-c1cc2c(N[C@H](C)c3cccc(C(F)F)c3F)ncnc2n(C)c1=O` [Example 21-7] showed an IC50 in experiment [3] of 150 nM.

Molecule `COC1(c2cc3c(N[C@H](C)c4cccc(C(F)F)c4F)ncnc3n(C)c2=O)CCCN(C(C)=O)C1` (stereo partly drawn) [Example 32-68] had a 50% inhibitory concentration (IC50) in experiment [3] of 67.6 nM.

`C[C@@H](Nc1ncnc2c1cc(-c1ccc[nH]1)c(=O)n2C)c1cccc(C(F)F)c1F` [Example 21-1] came in with an IC50 in experiment [3] of 1160 nM.

Molecule `C[C@@H](Nc1ncnc2c1cc(C1CCN(C(=O)CO)CC1)c(=O)n2C)c1cccc(C(F)F)c1F` [Example 8-10] returned an IC50 in experiment [3] of 61.5 nM.

On to `CN=S1(=O)CC=C(c2cc3c(N[C@H](C)c4cccc(C(F)F)c4F)ncnc3n(C)c2=O)CC1` (stereo partly drawn) [Example 24, 4-(((R)-1-(3-(difluoromethyl)-2-fluorophenyl)ethyl)amino)-8-methyl-6-(1-(methylimino)-1-oxido-1,2,3,6-tetrahydro-1λ^6-thiopyran-4-yl)pyrido[2,3-d]pyrimidin-7(8H)-one], for which the IC50 in experiment [1] is 13.5 nM.

With `CO[C@]1(c2cc3c(N[C@H](C)c4cccc5c4OCC5(F)F)ncnc3n(C)c2=O)CCN(C(C)=O)C1` [Example 32-94], the concentration for half-maximal inhibition (IC50) in experiment [3] stood at 28 nM.
